From US6355799B1, “Substituted benzene compounds, process for their preparation, and herbicidal and defoliant compositions containing them” (ISK Americas Incorporated, priority 1997, dated 2002)

What was measured:
Format in all cases: in vivo
[1] = test system: barnyardgrass (Echinochloa crus-galli, ECHCG); experiment: Pre-emerge test, greenhouse herbicide activity screening; settings: rated 14 days after application, 0 = no damage, 100 = complete death
Procedure, shortened: (§1)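 Herbicidal damage is scored 0 (none) to 100 (complete plant death) two weeks after a simulated field spray. Rates span 15–1000 g ai/ha, delivered in acetone at 187 l/ha. For post-emergence treatments, plants have 2–3 leaves and the spray carries 0.25% v/v non-ionic surfactant.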

[2] = test system: sicklepod (Cassia obtusifolia, CASOB); experiment: as above; settings: rated 14 days after application, 0 = no damage, 100 = complete death
Procedure, shortened: as §1

[3] = test system: ivyleaf morningglory (Ipomoea hederacea, IPOHE); experiment: as above; settings: rated 14 days after application, 0 = no damage, 100 = complete death
Procedure, shortened: as §1

[4] = test system: common ragweed (Ambrosia artemisizfolia L., AMBEL); experiment: as above; settings: rated 14 days after application, 0 = no damage, 100 = complete death
Procedure, shortened: as §1

[5] = test system: johnsongrass (Sorghum halepense, SORHA); experiment: as above; settings: rated 14 days after application, 0 = no damage, 100 = complete death
Procedure, shortened: as §1

[6] = test system: velvetleaf (Abutilon theophrasti, ABUTH); experiment: as above; settings: rated 14 days after application, 0 = no damage, 100 = complete death
Procedure, shortened: as §1

[7] = test system: large crabgrass (Digitaria sanguinalis, DIGSA); experiment: as above; settings: rated 14 days after application, 0 = no damage, 100 = complete death
Procedure, shortened: as §1

[8] = test system: green foxtail (Setaria viridis, SETVI); experiment: as above; settings: rated 14 days after application, 0 = no damage, 100 = complete death
Procedure, shortened: as §1

[9] = test system: lambsquarters (Chenopodium album, CHEAL); experiment: as above; settings: rated 14 days after application, 0 = no damage, 100 = complete death
Procedure, shortened: as §1

[10] = test system: upland rice (Oryza sp., var. Tebonnet, RICE); experiment: Pre-emerge test, crop safety; settings: rated 14 days after application, 0 = no damage, 100 = complete death
Procedure, shortened: (§2)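 Sandy loam pots; pre-emerge: sown 1 d pre-spray, surface-watered after, then bottom-watered. Post-emerge: sown 8–21 d before, 2–3 leaf stage, + 0.25% v/v NIS, bottom-watered. Acetone, 187 l/ha track spray, 15–1000 g ai/ha. 0–100 injury score, day 14.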

[11] = test system: field corn (Zea mays L., var. Dekalb 535, CORN); experiment: Pre-emerge test, crop safety; settings: rated 14 days after application, 0 = no damage, 100 = complete death
Procedure, shortened: as §2

[12] = test system: redroot pigweed (Amaranthus retroflexus, AMARE); experiment: Pre-emerge test, greenhouse herbicide activity screening; settings: rated 14 days after application, 0 = no damage, 100 = complete death
Procedure, shortened: as §2

[13] = test system: barnyardgrass (Echinochloa crus-galli, ECHCG); experiment: Post-emerge test, greenhouse herbicide activity screening; settings: post-emerge, 14 days after application, rating scale 0-100
Procedure, shortened: (§3)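 Each test used a mechanized track sprayer delivering 187 l/ha of acetone solution at 15–1000 g ai/ha. Post-emerge foliage at 2–3 leaves was treated with added 0.25% v/v non-ionic surfactant and bottom-watered only. Injury was assessed on day 14, where 100 means total kill.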

[14] = test system: sicklepod (Cassia obtusifolia, CASOB); experiment: as above; settings: post-emerge, 14 days after application, rating scale 0-100
Procedure, shortened: as §3

[15] = test system: ivyleaf morningglory (Ipomoea hederacea, IPOHE); experiment: as above; settings: post-emerge, 14 days after application, rating scale 0-100
Procedure, shortened: as §3

[16] = test system: redroot pigweed (Amaranthus retroflexus, AMARE); experiment: as above; settings: post-emerge, 14 days after application, rating scale 0-100
Procedure, shortened: as §3

[17] = test system: common ragweed (Ambrosia artemisizfolia L., AMBEL); experiment: as above; settings: post-emerge, 14 days after application, rating scale 0-100
Procedure, shortened: as §3

[18] = test system: johnsongrass (Sorghum halepense, SORHA); experiment: as above; settings: post-emerge, 14 days after application, rating scale 0-100
Procedure, shortened: as §3

[19] = test system: velvetleaf (Abutilon theophrasti, ABUTH); experiment: as above; settings: post-emerge, 14 days after application, rating scale 0-100
Procedure, shortened: as §3

[20] = test system: large crabgrass (Digitaria sanguinalis, DIGSA); experiment: as above; settings: post-emerge, 14 days after application, rating scale 0-100
Procedure, shortened: as §3

[21] = test system: green foxtail (Setaria viridis, SETVI); experiment: as above; settings: post-emerge, 14 days after application, rating scale 0-100
Procedure, shortened: as §3

[22] = test system: lambsquarters (Chenopodium album, CHEAL); experiment: as above; settings: post-emerge, 14 days after application, rating scale 0-100
Procedure, shortened: as §3

[23] = test system: upland rice (Oryza sp., var. Tebonnet, RICE); experiment: Post-emerge test, crop safety; settings: post-emerge, 14 days after application, rating scale 0-100
Procedure, shortened: as §1

[24] = test system: field corn (Zea mays L., var. Dekalb 535, CORN); experiment: Post-emerge test, crop safety; settings: post-emerge, 14 days after application, rating scale 0-100
Procedure, shortened: as §1

COc1c(Cl)cc(F)c(-n2c(=O)cc(C(F)(F)F)n(C)c2=O)c1NC(=O)c1ccc(F)cc1 [2-40]
Pre-emerge Herbicidal Activity, phytotoxicity rating (0-100), ECHCG ([1]; 63 g ai/ha): 85
Pre-emerge Herbicidal Activity, phytotoxicity rating (0-100), ECHCG ([1]; 250 g ai/ha): 100
Pre-emerge Herbicidal Activity, phytotoxicity rating (0-100), CASOB ([2]; 63 g ai/ha): 80
Pre-emerge Herbicidal Activity, phytotoxicity rating (0-100), CASOB ([2]; 250 g ai/ha): 100
Pre-emerge Herbicidal Activity, phytotoxicity rating (0-100), IPOHE ([3]; 63 g ai/ha): 90
Pre-emerge Herbicidal Activity, phytotoxicity rating (0-100), IPOHE ([3]; 250 g ai/ha): 100
Pre-emerge Herbicidal Activity, phytotoxicity rating (0-100), AMBEL ([4]; 63 g ai/ha): 100
Pre-emerge Herbicidal Activity, phytotoxicity rating (0-100), AMBEL ([4]; 250 g ai/ha): 100
Pre-emerge Herbicidal Activity, phytotoxicity rating (0-100), SORHA ([5]; 63 g ai/ha): 60
Pre-emerge Herbicidal Activity, phytotoxicity rating (0-100), SORHA ([5]; 250 g ai/ha): 100
Pre-emerge Herbicidal Activity, phytotoxicity rating (0-100), ABUTH ([6]; 63 g ai/ha): 100
Pre-emerge Herbicidal Activity, phytotoxicity rating (0-100), ABUTH ([6]; 250 g ai/ha): 100
Pre-emerge Herbicidal Activity, phytotoxicity rating (0-100), DIGSA ([7]; 63 g ai/ha): 90
Pre-emerge Herbicidal Activity, phytotoxicity rating (0-100), DIGSA ([7]; 250 g ai/ha): 100
Pre-emerge Herbicidal Activity, phytotoxicity rating (0-100), SETVI ([8]; 63 g ai/ha): 100
Pre-emerge Herbicidal Activity, phytotoxicity rating (0-100), SETVI ([8]; 250 g ai/ha): 100
Pre-emerge Herbicidal Activity, phytotoxicity rating (0-100), CHEAL ([9]; 63 g ai/ha): 100
Pre-emerge Herbicidal Activity, phytotoxicity rating (0-100), CHEAL ([9]; 250 g ai/ha): 100
Pre-emerge phytotoxicity rating (0-100), crop damage, RICE ([10]; 63 g ai/ha): 95
Pre-emerge phytotoxicity rating (0-100), crop damage, RICE ([10]; 250 g ai/ha): 100
Pre-emerge phytotoxicity rating (0-100), crop damage, CORN ([11]; 63 g ai/ha): 50
Pre-emerge phytotoxicity rating (0-100), crop damage, CORN ([11]; 250 g ai/ha): 95
Pre-emerge Herbicidal Activity, phytotoxicity rating (0-100), AMARE ([12]; 63 g ai/ha): 100
Pre-emerge Herbicidal Activity, phytotoxicity rating (0-100), AMARE ([12]; 250 g ai/ha): 100
phytotoxicity rating ECHCG ([13]; 63 g ai/ha): 0
phytotoxicity rating ECHCG ([13]; 250 g ai/ha): 100
phytotoxicity rating CASOB ([14]; 63 g ai/ha): 50
phytotoxicity rating CASOB ([14]; 250 g ai/ha): 90
phytotoxicity rating IPOHE ([15]; 63 g ai/ha): 100
phytotoxicity rating IPOHE ([15]; 250 g ai/ha): 100
phytotoxicity rating AMARE ([16]; 63 g ai/ha): 90
phytotoxicity rating AMARE ([16]; 250 g ai/ha): 100
phytotoxicity rating AMBEL ([17]; 63 g ai/ha): 80
phytotoxicity rating AMBEL ([17]; 250 g ai/ha): 100
phytotoxicity rating SORHA ([18]; 63 g ai/ha): 30
phytotoxicity rating SORHA ([18]; 250 g ai/ha): 100
phytotoxicity rating ABUTH ([19]; 63 g ai/ha): 100
phytotoxicity rating ABUTH ([19]; 250 g ai/ha): 100
phytotoxicity rating DIGSA ([20]; 63 g ai/ha): 10
phytotoxicity rating DIGSA ([20]; 250 g ai/ha): 90
phytotoxicity rating SETVI ([21]; 63 g ai/ha): 10
phytotoxicity rating SETVI ([21]; 250 g ai/ha): 90
phytotoxicity rating CHEAL ([22]; 63 g ai/ha): 80
phytotoxicity rating CHEAL ([22]; 250 g ai/ha): 95
phytotoxicity rating RICE ([23]; 63 g ai/ha): 50
phytotoxicity rating RICE ([23]; 250 g ai/ha): 95
phytotoxicity rating CORN ([24]; 63 g ai/ha): 40
phytotoxicity rating CORN ([24]; 250 g ai/ha): 90
